These are literature values, as cited in US20090192135A1, “Human Niemann Pick C1-Like 1 Gene (NPC1L1) Polymorphisms and Methods of Use Thereof” (SCHERING CORPORATION, priority 2005, published 2009).

Series [1] addresses T1, NPC1L1 (Homo sapiens, UniProt Q9UHC9).
T1 construct: from tissue; host or cells: small intestine of hypercholesterolemic patients (in vivo, clinical trial)
T1 sequence (Q9UHC9 22-1332 isoform Q9UHC9-2 limits assumed): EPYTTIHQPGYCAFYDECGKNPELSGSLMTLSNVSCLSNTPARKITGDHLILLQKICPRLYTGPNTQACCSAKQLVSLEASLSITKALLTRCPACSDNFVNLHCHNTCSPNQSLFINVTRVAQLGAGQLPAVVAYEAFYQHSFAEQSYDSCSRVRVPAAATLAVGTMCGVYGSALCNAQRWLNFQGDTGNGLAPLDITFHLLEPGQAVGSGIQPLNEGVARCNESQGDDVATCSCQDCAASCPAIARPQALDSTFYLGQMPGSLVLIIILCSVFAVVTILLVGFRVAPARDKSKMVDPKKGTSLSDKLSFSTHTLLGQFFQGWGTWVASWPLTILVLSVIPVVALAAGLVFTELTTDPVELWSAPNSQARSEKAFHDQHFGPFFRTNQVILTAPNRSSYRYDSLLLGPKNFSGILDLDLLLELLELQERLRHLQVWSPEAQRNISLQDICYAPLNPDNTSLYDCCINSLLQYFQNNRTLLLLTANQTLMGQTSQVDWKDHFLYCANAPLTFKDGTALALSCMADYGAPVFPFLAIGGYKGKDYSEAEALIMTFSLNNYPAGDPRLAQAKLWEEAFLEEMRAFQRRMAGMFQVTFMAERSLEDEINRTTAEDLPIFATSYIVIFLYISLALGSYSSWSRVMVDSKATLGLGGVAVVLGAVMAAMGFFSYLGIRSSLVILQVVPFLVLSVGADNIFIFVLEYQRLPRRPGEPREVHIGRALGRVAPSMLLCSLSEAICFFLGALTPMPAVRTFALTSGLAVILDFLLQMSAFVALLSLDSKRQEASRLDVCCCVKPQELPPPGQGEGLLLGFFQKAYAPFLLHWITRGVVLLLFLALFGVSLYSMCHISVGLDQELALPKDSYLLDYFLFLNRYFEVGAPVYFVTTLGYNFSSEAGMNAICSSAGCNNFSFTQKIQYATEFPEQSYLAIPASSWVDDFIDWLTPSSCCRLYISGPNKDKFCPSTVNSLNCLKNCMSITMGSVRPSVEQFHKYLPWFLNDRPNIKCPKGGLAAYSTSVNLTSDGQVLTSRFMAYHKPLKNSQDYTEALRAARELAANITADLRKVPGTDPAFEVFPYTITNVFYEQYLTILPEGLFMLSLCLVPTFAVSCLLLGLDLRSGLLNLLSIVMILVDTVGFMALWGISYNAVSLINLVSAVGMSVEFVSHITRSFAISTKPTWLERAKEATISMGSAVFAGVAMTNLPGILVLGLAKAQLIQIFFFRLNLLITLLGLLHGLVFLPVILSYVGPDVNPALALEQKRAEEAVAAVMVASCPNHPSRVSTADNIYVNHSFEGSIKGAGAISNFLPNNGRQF
To be noted: cited from earlier work.

The target of series [2] is T2, NPC1L1 (Homo sapiens, UniProt Q9UHC9).
T2 sequence (Q9UHC9 22-1359): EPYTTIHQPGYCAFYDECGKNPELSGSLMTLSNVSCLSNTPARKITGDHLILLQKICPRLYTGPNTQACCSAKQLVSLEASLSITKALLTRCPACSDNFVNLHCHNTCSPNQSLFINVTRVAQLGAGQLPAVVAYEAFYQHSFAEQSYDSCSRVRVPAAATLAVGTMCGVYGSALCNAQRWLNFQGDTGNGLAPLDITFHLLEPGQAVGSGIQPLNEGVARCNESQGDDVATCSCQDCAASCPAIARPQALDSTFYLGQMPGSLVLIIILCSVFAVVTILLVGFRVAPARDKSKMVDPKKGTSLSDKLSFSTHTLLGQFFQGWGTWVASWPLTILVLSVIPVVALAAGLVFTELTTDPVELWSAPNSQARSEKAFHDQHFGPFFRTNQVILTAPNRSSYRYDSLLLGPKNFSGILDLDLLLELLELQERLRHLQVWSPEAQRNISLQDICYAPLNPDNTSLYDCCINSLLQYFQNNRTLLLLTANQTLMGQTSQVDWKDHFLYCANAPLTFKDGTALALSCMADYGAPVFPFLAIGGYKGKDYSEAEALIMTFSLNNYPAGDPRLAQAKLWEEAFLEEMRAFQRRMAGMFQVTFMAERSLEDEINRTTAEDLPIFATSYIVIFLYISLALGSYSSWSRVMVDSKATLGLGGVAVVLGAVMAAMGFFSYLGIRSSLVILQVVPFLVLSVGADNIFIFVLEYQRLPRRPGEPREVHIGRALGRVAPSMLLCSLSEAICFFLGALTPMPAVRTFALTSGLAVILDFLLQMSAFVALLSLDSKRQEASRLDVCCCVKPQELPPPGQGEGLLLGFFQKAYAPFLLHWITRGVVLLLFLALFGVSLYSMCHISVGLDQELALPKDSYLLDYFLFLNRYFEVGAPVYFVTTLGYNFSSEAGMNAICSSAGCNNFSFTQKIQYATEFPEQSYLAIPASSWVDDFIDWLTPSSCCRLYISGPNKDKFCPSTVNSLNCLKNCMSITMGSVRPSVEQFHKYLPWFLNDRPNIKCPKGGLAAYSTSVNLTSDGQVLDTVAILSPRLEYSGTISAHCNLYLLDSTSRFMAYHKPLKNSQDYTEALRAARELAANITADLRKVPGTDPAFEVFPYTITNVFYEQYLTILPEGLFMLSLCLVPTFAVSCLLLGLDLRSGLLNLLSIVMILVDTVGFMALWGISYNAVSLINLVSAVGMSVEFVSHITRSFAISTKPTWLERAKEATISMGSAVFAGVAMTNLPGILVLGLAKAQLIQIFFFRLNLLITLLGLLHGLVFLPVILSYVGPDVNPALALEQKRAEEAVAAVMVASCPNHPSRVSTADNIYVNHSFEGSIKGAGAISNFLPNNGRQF
To be noted: co-administered with a statin; cited from earlier work.

Each structure is given as a SMILES string.

Take `O=C1[C@H](CC[C@H](O)c2ccc(F)cc2)[C@@H](c2ccc(O)cc2)N1c1ccc(F)cc1` [ezetimibe, 1-(4-fluorophenyl)-3(R)-[3-(4-fluorophenyl)-3(S)-hydroxypropyl]-4(S)-(4-hydroxyphenyl)-2-azetidinone]: the “additional LDL-C reduction compared with addition of placebo” value on NPC1L1 [1] (added to ongoing statin therapy, stable dose of statins, EASE) is recorded as about 23%. For the same molecule, the “reduction in LDL-C” value on NPC1L1 [1] (ezetimibe group of EASE trial (placebo 2.7%, p<0.001)) is 25.8%. In addition, at NPC1L1 [2], the “incremental LDL-C reduction attributable to ezetimibe” value was 14-15%.
